The results in this text go back to patent publication US10221177B2 (HYDRA BIOSCIENCES, INC., priority 2014, dated 2019).

Bounds are passed on as bounds.

Sequence of human TRPA1 (O75762 whole entry, the tested form may be a part): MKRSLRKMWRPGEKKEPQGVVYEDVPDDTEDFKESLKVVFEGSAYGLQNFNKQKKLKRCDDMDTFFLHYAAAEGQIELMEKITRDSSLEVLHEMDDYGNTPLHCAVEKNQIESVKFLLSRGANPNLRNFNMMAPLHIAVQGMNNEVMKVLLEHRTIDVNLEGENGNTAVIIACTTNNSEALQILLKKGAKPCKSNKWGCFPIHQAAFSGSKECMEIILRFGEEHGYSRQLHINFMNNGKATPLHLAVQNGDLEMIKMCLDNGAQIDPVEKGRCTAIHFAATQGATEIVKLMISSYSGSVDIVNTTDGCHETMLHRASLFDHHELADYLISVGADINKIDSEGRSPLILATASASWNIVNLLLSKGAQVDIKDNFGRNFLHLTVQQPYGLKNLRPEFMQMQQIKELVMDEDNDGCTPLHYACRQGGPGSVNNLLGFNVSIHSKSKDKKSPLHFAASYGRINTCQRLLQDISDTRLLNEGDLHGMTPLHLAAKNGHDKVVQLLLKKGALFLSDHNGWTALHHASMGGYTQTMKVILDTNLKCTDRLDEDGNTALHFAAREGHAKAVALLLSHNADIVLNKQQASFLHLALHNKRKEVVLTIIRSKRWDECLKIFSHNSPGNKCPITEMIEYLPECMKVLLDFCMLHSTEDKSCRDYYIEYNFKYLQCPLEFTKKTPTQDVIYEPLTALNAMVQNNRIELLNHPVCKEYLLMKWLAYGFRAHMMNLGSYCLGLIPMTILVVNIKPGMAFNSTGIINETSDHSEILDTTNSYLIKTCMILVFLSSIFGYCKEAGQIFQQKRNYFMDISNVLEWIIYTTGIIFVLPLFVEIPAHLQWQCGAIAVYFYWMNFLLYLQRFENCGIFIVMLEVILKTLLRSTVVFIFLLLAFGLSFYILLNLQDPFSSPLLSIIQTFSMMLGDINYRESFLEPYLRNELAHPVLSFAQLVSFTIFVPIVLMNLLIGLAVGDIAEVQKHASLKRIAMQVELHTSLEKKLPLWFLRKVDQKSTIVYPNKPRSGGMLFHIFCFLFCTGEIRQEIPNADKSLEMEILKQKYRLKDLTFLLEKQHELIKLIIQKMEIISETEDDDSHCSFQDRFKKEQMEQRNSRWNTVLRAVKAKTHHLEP

This test concerns the target human TRPA1 (Homo sapiens (Human), UniProt O75762). Kind of test: In vitro inhibition of human TRPA1, whole cell patch configuration. Particulars: current activation 10 μM AITC, tested concentrations 320 pM to 3.2 μM, read-out: hTRPA1 IC50. It is filed as cell-based. An outline of the steps:
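Whole-cell patch clamp, bath 150 mM NaCl, 10 mM HEPES, 1 mM EGTA, 3 mM MgCl2, pH 7.4 (sometimes 2 mM CaCl2, 1 mM MgCl2). Currents recorded continuously at −60 mV or by 400 ms ramps from −40 mV holding every 4 s; inward/outward currents taken at −80/80 mV, with controlled-temperature focal perfusion.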
What is called IC50 is the concentration that gives 50% inhibition. Turning to `CCC(=O)Cn1c(=O)c2c(ncn2[C@@H](C)C(=O)Nc2cccc(-c3ccc(N4CC5C(C4)C5(F)F)nc3)n2)n(C)c1=O` (stereo partly drawn) [Compound 68, (2S)—N-(6′-(6,6-difluoro-3-azabicyclo[3.1.0]hexan-3-yl)-[2,3′-bipyridin]-6-yl)-2-(3-methyl-2,6-dioxo-1-(2-oxobutyl)-2,3-dihydro-1H-purin-7(6H)-yl)propanamide], the IC50 was found to be 5 nM.

For the molecule `CC(=O)Cn1c(=O)c2c(ncn2[C@@H](C)C(=O)Nc2ccnc(-c3ccc(N4CC5C(C4)C5(F)F)nc3)n2)n(C)c1=O` (stereo partly drawn) [Compound 69, (2S)—N-(2-(6-(6,6-difluoro-3-azabicyclo[3.1.0]hexan-3-yl)pyridin-3-yl)pyrimidin-4-yl)-2-(3-methyl-2,6-dioxo-1-(2-oxopropyl)-2,3-dihydro-1H-purin-7(6H)-yl)propanamide], the IC50 was 7 nM.

Consider `CCC(=O)Cn1c(=O)c2c(ncn2[C@@H](C)C(=O)Nc2ccnc(-c3ccc(N4CC5C(C4)C5(F)F)nc3)n2)n(C)c1=O` (stereo partly drawn) [Compound 70, (2S)—N-(2-(6-(6,6-difluoro-3-azabicyclo[3.1.0]hexan-3-yl)pyridin-3-yl)pyrimidin-4-yl)-2-(3-methyl-2,6-dioxo-1-(2-oxobutyl)-2,3-dihydro-1H-purin-7(6H)-yl)propanamide], for which the IC50 came out at 5 nM.

On to `CNC(=O)Cn1c(=O)c2c(ncn2[C@@H](C)C(=O)Nc2csc(-c3cnc(N4CC5CC5C4)nc3)n2)n(C)c1=O` (stereo partly drawn) [Compound 71, (2S)—N-(2-(2-(3-azabicyclo[3.1.0]hexan-3-yl)pyrimidin-5-yl)thiazol-4-yl)-2-(3-methyl-1-(2-(methylamino)-2-oxoethyl)-2,6-dioxo-2,3-dihydro-1H-purin-7(6H)-yl)propanamide], for which the IC50 was determined as 44 nM.

On to `CCC(=O)Cn1c(=O)c2c(ncn2[C@@H](C)C(=O)Nc2cncc(-c3cnc(N4CC5C(C4)C5(F)F)nc3)n2)n(C)c1=O` (stereo partly drawn) [Compound 75, (2S)—N-(6-(2-(6,6-difluoro-3-azabicyclo[3.1.0]hexan-3-yl)pyrimidin-5-yl)pyrazin-2-yl)-2-(3-methyl-2,6-dioxo-1-(2-oxobutyl)-2,3-dihydro-1H-purin-7(6H)-yl)propanamide], for which the IC50 was 3 nM.

On to `CC(=O)Cn1c(=O)c2c(ncn2[C@@H](C)C(=O)Nc2cncc(-c3ccc(N4CC5C(C4)C5(F)F)nc3)n2)n(C)c1=O` (stereo partly drawn) [Compound 76, (2S)—N-(6-(6-(6,6-difluoro-3-azabicyclo[3.1.0]hexan-3-yl)pyridin-3-yl)pyrazin-2-yl)-2-(3-methyl-2,6-dioxo-1-(2-oxopropyl)-2,3-dihydro-1H-purin-7(6H)-yl)propanamide], for which the IC50 came out at 10 nM.

With `C[C@@H](C(=O)Nc1cncc(-c2ccc(N3CC4C(C3)C4(F)F)nc2)n1)n1cnc2c1c(=O)n(CC#N)c(=O)n2C` (some centres unmarked) [Compound 77], the IC50 was 2 nM.

Take `Cc1cc(Cn2c(=O)c3c(ncn3[C@@H](C)C(=O)Nc3cccc(-c4noc(C(F)(F)F)n4)n3)n(C)c2=O)no1` [Compound 78]: the IC50 is 86 nM.

With `CCC(=O)Cn1c(=O)c2c(ncn2[C@@H](C)C(=O)Nc2csc(-c3ccc(N4CC5C(C4)C5(F)F)nc3)n2)n(C)c1=O` (stereo partly drawn) [Compound 80, (2S)—N-(2-(6-(6,6-difluoro-3-azabicyclo[3.1.0]hexan-3-yl)pyridin-3-yl)thiazol-4-yl)-2-(3-methyl-2,6-dioxo-1-(2-oxobutyl)-2,3-dihydro-1H-purin-7(6H)-yl)propanamide], the half-maximal inhibitory concentration (IC50) stood at 1 nM.

Consider `CC(=O)Cn1c(=O)c2c(ncn2[C@@H](C)C(=O)Nc2csc(-c3cnc(C)c(Cl)c3)n2)n(C)c1=O` [Compound 81, (S)—N-(2-(5-chloro-6-methylpyridin-3-yl)thiazol-4-yl)-2-(3-methyl-2,6-dioxo-1-(2-oxopropyl)-2,3-dihydro-1H-purin-7(6H)-yl)propanamide], for which the IC50 worked out at 10 nM.

Take `CC(=O)Cn1c(=O)c2c(ncn2[C@@H](C)C(=O)Nc2csc(-c3cnc(C(F)(F)F)c(C)c3)n2)n(C)c1=O` [Compound 82, (S)-2-(3-methyl-2,6-dioxo-1-(2-oxopropyl)-2,3-dihydro-1H-purin-7(6H)-yl)-N-(2-(5-methyl-6-(trifluoromethyl)pyridin-3-yl)thiazol-4-yl)propanamide]: the IC50 is 5 nM.

`CCC(=O)Cn1c(=O)c2c(ncn2[C@@H](C)C(=O)Nc2csc(-c3cnc(C(F)(F)F)c(C)c3)n2)n(C)c1=O` [Compound 83, (S)-2-(3-methyl-2,6-dioxo-1-(2-oxobutyl)-2,3-dihydro-1H-purin-7(6H)-yl)-N-(2-(5-methyl-6-(trifluoromethyl)pyridin-3-yl)thiazol-4-yl)propanamide]: the IC50 turned out to be 2 nM.

Turning to `CCC(=O)Cn1c(=O)c2c(ncn2[C@@H](C)C(=O)Nc2cncc(-c3ccc(N4CC5C(C4)C5(F)F)nc3)n2)n(C)c1=O` (stereo partly drawn) [Compound 84, (2S)—N-(6-(6-(6,6-difluoro-3-azabicyclo[3.1.0]hexan-3-yl)pyridin-3-yl)pyrazin-2-yl)-2-(3-methyl-2,6-dioxo-1-(2-oxobutyl)-2,3-dihydro-1H-purin-7(6H)-yl)propanamide], the IC50 is 4 nM.

With `Cc1cc(Cn2c(=O)c3c(ncn3[C@@H](C)C(=O)Nc3ccnc(-c4cnc(C(F)(F)F)c(C)c4)n3)n(C)c2=O)no1` [Compound 85, (S)-2-(3-methyl-1-((5-methylisoxazol-3-yl)methyl)-2,6-dioxo-2,3-dihydro-1H-purin-7(6H)-yl)-N-(2-(5-methyl-6-(trifluoromethyl)pyridin-3-yl)pyrimidin-4-yl)propanamide], the IC50 amounted to 3 nM.

As to `CNC(=O)Cn1c(=O)c2c(ncn2[C@@H](C)C(=O)Nc2cccc(-c3cnc(C(F)(F)F)nc3)n2)n(C)c1=O` [Compound 87, (S)-2-(3-methyl-1-(2-(methylamino)-2-oxoethyl)-2,6-dioxo-2,3-dihydro-1H-purin-7(6H)-yl)-N-(6-(2-(trifluoromethyl)pyrimidin-5-yl)pyridin-2-yl)propanamide], the IC50 amounted to 258 nM.

In the case of `C[C@@H](C(=O)Nc1cccc(-c2cnc(C(F)(F)F)nc2)n1)n1cnc2c1c(=O)n(CC1CCO1)c(=O)n2C` (stereo partly drawn) [Compound 88, (2S)-2-(3-methyl-1-(oxetan-2-ylmethyl)-2,6-dioxo-2,3-dihydro-1H-purin-7(6H)-yl)-N-(6-(2-(trifluoromethyl)pyrimidin-5-yl)pyridin-2-yl)propanamide], the IC50 is 894 nM.

`CCC(=O)Cn1c(=O)c2c(ncn2[C@@H](C)C(=O)Nc2csc(-c3cnc(C)c(Cl)c3)n2)n(C)c1=O` [Compound 90]: the half-inhibitory concentration (IC50) is 3 nM.

Regarding `Cc1cc(Cn2c(=O)c3c(ncn3[C@@H](C)C(=O)Nc3csc(-c4cnc(C)c(Cl)c4)n3)n(C)c2=O)no1` [Compound 91], the IC50 came to 2 nM.

Regarding `CC(=O)Cn1c(=O)c2c(ncn2[C@@H](C)C(=O)Nc2csc(-c3cnc(C)c(F)c3)n2)n(C)c1=O` [Compound 92, (S)—N-(2-(5-fluoro-6-methylpyridin-3-yl)thiazol-4-yl)-2-(3-methyl-2,6-dioxo-1-(2-oxopropyl)-2,3-dihydro-1H-purin-7(6H)-yl)propanamide], the half-maximal inhibitory concentration (IC50) came out at 33 nM.

On to `Cc1cc(Cn2c(=O)c3c(ncn3[C@@H](C)C(=O)Nc3cccc(-c4nc(=O)o[nH]4)n3)n(C)c2=O)no1` [Compound 93, (S)-2-(3-methyl-1-((5-methylisoxazol-3-yl)methyl)-2,6-dioxo-2,3-dihydro-1H-purin-7(6H)-yl)-N-(6-(5-oxo-2,5-dihydro-1,2,4-oxadiazol-3-yl)pyridin-2-yl)propanamide], for which the half-inhibitory concentration (IC50) is more than 3200 nM.
